This is an account of results in ChEMBL document CHEMBL1125980, “Structural homologies among thromboxane (TXA2) receptor antagonists: Minimal pharmacophoric requirements for high affinity interaction with TXA2 receptors” (Bioorg Med Chem Lett, 1991).

Broadly, the Kd is the free concentration of one partner at which half of the binding sites on the other are occupied at equilibrium, for simple one-to-one binding. As usually defined, the IC50 is the concentration at which inhibition is half-maximal. A low value points to higher potency.

For test [1], the target named is T1, Thromboxane A2 receptor (Homo sapiens, UniProt P21731).
T1 sequence (P21731 whole entry): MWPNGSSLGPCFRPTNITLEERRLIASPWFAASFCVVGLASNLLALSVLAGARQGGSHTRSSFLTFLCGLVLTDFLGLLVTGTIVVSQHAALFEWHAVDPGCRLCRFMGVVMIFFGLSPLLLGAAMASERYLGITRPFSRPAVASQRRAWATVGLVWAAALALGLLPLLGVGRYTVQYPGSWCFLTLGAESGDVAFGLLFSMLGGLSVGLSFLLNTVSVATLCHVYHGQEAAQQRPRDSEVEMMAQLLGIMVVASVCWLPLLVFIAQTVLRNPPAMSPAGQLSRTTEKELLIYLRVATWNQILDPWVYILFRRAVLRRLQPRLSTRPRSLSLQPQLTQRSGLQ
As to the kind of experiment: Tested for binding affinity against platelet TXA2 receptor in washed human platelets using [125I]BOP as radioligand.

The species entered for test [2] is Homo sapiens. As to the kind of experiment: Tested for concentration required for antagonism of U-46,619-Induced Human Platelet Aggregation. It counts as functional.

In turn, `O=C(O)CCC/C=C/CCCNS(=O)(=O)c1ccccc1` displayed an equilibrium dissociation constant (Kd) in test [1] of 0.067 µM. Besides, the IC50 in test [2] worked out at 1 µM.

For the compound `O=C(O)CCCCCCCCNS(=O)(=O)c1ccccc1`, the Kd in test [1] is 0.172 µM. Also, the IC50 in test [2] turned out to be 1.5 µM.

For `O=C(O)CCC/C=C\C[C@H]1CCC[C@H]1NS(=O)(=O)c1ccccc1`, in test [1], the Kd stood at 0.036 µM. The same compound displayed an IC50 in test [2] of 0.25 µM.

For `O=C(O)CCC/C=C\C[C@H]1CCC[C@@H]1NS(=O)(=O)c1ccccc1`, in test [1], the Kd was determined as 0.0075 µM. The same compound came in with an IC50 in test [2] of 0.15 µM.

In turn, `O=C(O)CCC/C=C\CC1C2CCC(C2)C1NS(=O)(=O)c1ccccc1` (stereo not given) yielded a Kd in test [1] of 0.0029 µM. Further, in test [2], half-maximal inhibition (IC50) required 0.032 µM.
